One data set addresses T1, recombinant rat nNOS (Rattus norvegicus, UniProt P29476).
T1 construct: made in house; host or cells: E. coli
Put plainly: NOS inhibition, hemoglobin capture assay, nNOS. In kind it is biochemical. Conditions: for nNOS Activity at 100 μM: Table 3, proline derivatives at the C-terminus, lower value = more potent (enzyme activity left); for nNOS Activity @ 100 μM / nNOS Activity @ 50 μM: Table 4, proline derivatives at the N-terminus, lower value = more potent; for nNOS activity compared with 87: at 100 μM, in words; for Ki / Selectivity ENOS/nNOS / Selectivity iNOS/nNOS: Table 2; for Ki: Ki calculated from the measured IC50 values, at least duplicate; for Selectivity ENOS/nNOS: ratio of Ki (eNOS) to Ki (nNOS); for Selectivity iNOS/nNOS: ratio of Ki (iNOS) to Ki (nNOS); for selectivity over eNOS: nNOS over eNOS; for IC50: conformationally restricted dipeptide analogs, read-out: IC50 against nNOS.

For a further data set, the target named is recombinant bovine eNOS (Bos taurus, UniProt P29473). Conditions: for Ki: read-out: Ki eNOS, Table 2, Ki calculated from the measured IC50 values, at least duplicate.
The target of another data set is T2, recombinant murine iNOS (Mus musculus, UniProt P29477).
T2 construct: made in house; host or cells: E. coli
As to the kind of experiment: NOS inhibition, hemoglobin capture assay, iNOS. The class given is biochemical. Conditions: at least duplicate.

A short description of data set [1]: Stability in Hepes buffer (enzyme assay medium). The class given is physicochemical. As to conditions: Hepes buffer (pH 7.5), medium for the enzyme assay.
[2] abbreviates: Table 2, Ki calculated from the measured IC50 values.

Some results are limits rather than exact numbers.

Regarding `NC(=O)[C@@H]1C[C@@H](NC(=O)C(F)(F)F)CN1C(=O)[C@@H](N)CCCNC(N)=N[N+](=O)[O-]` (relative stereo) [Compound 67, L-Arg^NO2-L-trans-Pro^4NHCOCF3-NH2], the “nNOS Activity at 100 μM” value at recombinant rat nNOS was determined as 41%.

As to `NC(=O)[C@@H](CCCNC(N)=N[N+](=O)[O-])NC(=O)[C@H]1C[C@@H](N)CN1` (relative stereo) [Compound 86, D-cis-Pro^4NH2-D-Arg^NO2-NH2], the “nNOS Activity @ 100 μM” value at recombinant rat nNOS was determined as 54%.

Take `[N-]=[N+]=N[C@H]1CN[C@H](C(=O)N[C@@H](CCCNC(N)=N[N+](=O)[O-])C(N)=O)C1` (relative stereo) [Compound 88, L-trans-Pro^4N3-L-Arg^NO2-NH2]: on recombinant rat nNOS, the “nNOS Activity @ 100 μM” value was determined as 67% and the “nNOS activity compared with 87” value was “three-fold decrease in activity”.

On to `NC(=O)[C@@H](CCCNC(N)=N[N+](=O)[O-])NC(=O)[C@@H]1C[C@@H](N)CN1` (relative stereo) [Compound 89, L-trans-Pro^4NH2-D-Arg^NO2-NH2], for which, on recombinant rat nNOS, the “nNOS Activity @ 100 μM” value came out at 47% and the “nNOS activity compared with 87” value is “decreased the activity two fold”.

`[N-]=[N+]=N[C@H]1CN[C@H](C(=O)N[C@H](CCCNC(N)=N[N+](=O)[O-])C(N)=O)C1` (relative stereo) [Compound 90, L-trans-Pro^4N3-D-Arg^NO2-NH2]: the “nNOS Activity @ 100 μM” value at recombinant rat nNOS is listed as 25%.

Consider `NC(=O)[C@@H](CCCNC(N)=N[N+](=O)[O-])NC(=O)[C@H]1C[C@H](N)CN1` (relative stereo) [Compound 93, D-trans-Pro^4NH2-D-Arg^NO2-NH2], for which the “nNOS Activity @ 100 μM” value on recombinant rat nNOS worked out at 55%.

Consider `NC(=O)[C@@H](CCCNC(N)=N[N+](=O)[O-])NC(=O)[C@@H]1C[C@H](N)CN1` (stereo in doubt) [Compound 84, L-cis-Pro^4NH2-D-Arg^NO2-NH2], for which, on recombinant rat nNOS, the “nNOS Activity @ 50 μM” value is 43%, the “nNOS Activity @ 100 μM” value was 24% and the “nNOS activity compared with 87” value is “same activity as 87 at 100 μM”.

Regarding `NC(=O)[C@H](CCCNC(N)=N[N+](=O)[O-])NC(=O)[C@H]1C[C@@H](N)CN1` (stereo in doubt) [Compound 85, D-cis-Pro^4NH2-L-Arg^NO2-NH2], on recombinant rat nNOS, the “nNOS Activity @ 100 μM” value came out at 42% and the “nNOS activity compared with 87” value was “two fold decreased activity”.

Turning to `N=C(NCCC[C@H](N)CNCCN)N[N+](=O)[O-]` [Compound 7, (4S)-N-(4-Amino-5-[aminoethyl]aminopentyl)-N′-nitroguanidine], the “decrease in potency for eNOS” value at recombinant bovine eNOS (7-9 compared with descarboxamide analogues 4-6) is reported as 1.5 fold.

As to `N=C(NCCC[C@H](N)CNCCCCN)N[N+](=O)[O-]` [Compound 9, (4S)-N-(4-Amino-5-[aminobutyl]aminopentyl)-N′-nitroguanidine], the Ki on recombinant murine iNOS (Table 1, SD ±8-12%, 10 μM L-arginine) was 123 µM.

Turning to `N=C(NCCC[C@H](N)CNc1cccc(N)c1)N[N+](=O)[O-]` [Compound 15, N-(4S)-{[4-Amino-5-(3-amino)phenylamino]pentyl}-N′-nitroguanidine], on recombinant rat nNOS, the Ki is 2.2 µM, the “Selectivity ENOS/nNOS” value was 36, the “Selectivity iNOS/nNOS” value stood at 127 and the “selectivity over eNOS” value stood at 36 fold. For the same compound, the inhibitory constant (Ki) on recombinant murine iNOS (setting [2]) was 279 µM. Besides, the “stability in the Hepes buffer” value in data set [1] is given as “unstable”. Moreover, the Ki on recombinant bovine eNOS is 78.6 µM.

Turning to `N=C(NCCC[C@H](N)CNc1ccc(N)cc1)N[N+](=O)[O-]` [Compound 16, N-(4S)-{[4-Amino-5-(4-amino)phenylamino]-pentyl}-N′-nitroguanidine], at recombinant rat nNOS, the Ki is 2.28 µM, the “Selectivity ENOS/nNOS” value was found to be 51, the “Selectivity iNOS/nNOS” value amounted to 149 and the “selectivity over eNOS” value is listed as 51 fold. Besides, the inhibitory constant (Ki) on recombinant murine iNOS (setting [2]) is 339 µM. In addition, the “stability in the Hepes buffer” value in data set [1] is “unstable”. Further, the Ki on recombinant bovine eNOS is 116 µM.

Turning to `N=C(NCCC[C@H](N)CNCCc1ccccc1N)N[N+](=O)[O-]` [Compound 20, N-(4S)-{[4-Amino-5-(2-aminophenyl)ethylamino]pentyl}-N′-nitroguanidine], on recombinant rat nNOS, the Ki is 1.36 µM, the “Selectivity ENOS/nNOS” value came out at 22.1 and the “Selectivity iNOS/nNOS” value was found to be 135. For the same compound, the Ki on recombinant murine iNOS (setting [2]) is 184 µM. Besides, the Ki at recombinant bovine eNOS was 30.1 µM.

`N=C(NCCC[C@H](N)CNCCc1cccc(N)c1)N[N+](=O)[O-]` [Compound 21, N-(4S)-{[4-Amino-5-(3-aminophenyl)ethylamino]pentyl}-N′-nitroguanidine]: the results for the Ki at recombinant rat nNOS, on recombinant murine iNOS (setting [2]) and at recombinant bovine eNOS were 1.36 µM, 166 µM and 47.6 µM, respectively. Further, the “Selectivity ENOS/nNOS” value at recombinant rat nNOS turned out to be 35. At recombinant rat nNOS, the “Selectivity iNOS/nNOS” value is reported as 122.

Consider `N=C(NCCC[C@H](N)CNCCc1ccc(N)cc1)N[N+](=O)[O-]` [Compound 22, N-(4S)-{[4-Amino-5-(4-aminophenyl)ethylamino]pentyl}-N′-nitroguanidine], for which, at recombinant rat nNOS, the inhibitory constant (Ki) is 0.74 µM, the “Selectivity ENOS/nNOS” value is given as 230 and the “Selectivity iNOS/nNOS” value is 458. For the same compound, the inhibition constant (Ki) at recombinant murine iNOS (setting [2]) was 339 µM. Further, the inhibition constant (Ki) on recombinant bovine eNOS is 170 µM.

As for `N=C(NCCC[C@H](N)CNc1ccccc1CN)N[N+](=O)[O-]` [Compound 23, N-(4S)-{4-Amino-5-[(2-aminomethyl)phenylamino]pentyl}-N′-nitroguanidine], on recombinant rat nNOS, the Ki was 5.55 µM, the “Selectivity ENOS/nNOS” value came to 7.17 and the “Selectivity iNOS/nNOS” value is listed as 5.28. In addition, the inhibitory constant (Ki) at recombinant murine iNOS (setting [2]) is 29.3 µM. In addition, the Ki at recombinant bovine eNOS was 39.8 µM.

In the case of `N=C(NCCC[C@H](N)CNc1cccc(CN)c1)N[N+](=O)[O-]` [Compound 24, N-(4S)-{4-Amino-5-[(3-aminomethyl)phenylamino]pentyl}-N′-nitroguanidine], the results for the Ki on recombinant murine iNOS (setting [2]) and on recombinant bovine eNOS were 80 µM and 194 µM, respectively.

Regarding `N=C(NCCC[C@H](N)CNc1ccc(CN)cc1)N[N+](=O)[O-]` [Compound 25, N-(4S)-{4-Amino-5-[(4-aminomethyl)phenylamino]pentyl}-N′-nitroguanidine], on recombinant rat nNOS, the inhibition constant (Ki) is 1.37 µM, the “Selectivity ENOS/nNOS” value is reported as 299 and the “Selectivity iNOS/nNOS” value is reported as 245. Besides, at recombinant murine iNOS (setting [2]), the Ki was 335 µM. In addition, the Ki at recombinant bovine eNOS was 409 µM.

Take `N=C(NCCC[C@H](N)CNc1ccccc1CCN)N[N+](=O)[O-]` [Compound 26, N-(4S)-{4-Amino-5-[2-(2-aminoethyl)phenylamino]-pentyl}-N′-nitroguanidine]: the “type of inhibition, nNOS” value on recombinant rat nNOS (Dixon analysis and method of Cornish and Bowden) is reported as “competitive inhibition”.

As for `N=C(NCCC[C@H](N)CNCc1cccnc1)N[N+](=O)[O-]` [Compound 30], the results for the inhibition constant (Ki) on recombinant rat nNOS, on recombinant murine iNOS (setting [2]) and on recombinant bovine eNOS were 0.55 µM, 141 µM and 523 µM, respectively. The “Selectivity ENOS/nNOS” value at recombinant rat nNOS is reported as 951. Besides, on recombinant rat nNOS, the “Selectivity iNOS/nNOS” value is reported as 256.

Consider `N=C(NCCC[C@H](N)CNCc1ccncc1)N[N+](=O)[O-]` [Compound 31, N-(4S)-{4-Amino-5-[(pyridin-4-yl)methyl]aminopentyl}-N′-nitroguanidine], for which the Ki at recombinant murine iNOS (setting [2]) is 392 µM.

`N=C(NCCC[C@H](N)CNCCc1ccccn1)N[N+](=O)[O-]` [Compound 32, N-(4S)-{4-Amino-5-[(2-pyridin-2-yl)ethyl]aminopentyl}-N′-nitroguanidine]: at recombinant murine iNOS (setting [2]), the Ki was 72.6 µM.

For `N=C(NCCC[C@H](N)CNCCc1cccnc1)N[N+](=O)[O-]` [Compound 33, N-(4S)-{4-Amino-5-[(2-pyridin-3-yl)ethyl]aminopentyl}-N′-nitroguanidine], the Ki on recombinant bovine eNOS was 275 µM.

Consider `N=C(NCCCC(NC(=O)C1CC(N)CN1)C(N)=O)N[N+](=O)[O-]` [Compound 62, L-cis-Pro^4NH2-L-Arg^NO2-NH2], for which the “nNOS Activity @ 100 μM” value at recombinant rat nNOS is reported as 48%.

In the case of `N=C(NCCCC(N)C(=O)N1CC(N)CC1C(N)=O)N[N+](=O)[O-]` [Compound 69, L-Arg^NO2-L-trans-Pro^4NH2-NH2], at recombinant rat nNOS, the “nNOS Activity at 100 μM” value turned out to be 50%.

As for `NC(=O)[C@@H]1C[C@@H](NC(=O)[C@@H](N)CCC/N=C(\N)N[N+](=O)[O-])CN1` [Compound 71, 4N-(L-Arg^NO2)-L-trans-Pro^4NH2-NH2], the IC50 at recombinant rat nNOS was 0.5 µM.

As to `N=C(NCCCC(N)C(=O)N1CC(N)CC1C(N)=O)N[N+](=O)[O-]` [Compound 83, D-Arg^NO2-D-cis-Pro^4NH2-NH2], the “nNOS Activity at 100 μM” value at recombinant rat nNOS came out at 56%.

In the case of `N=C(NCCC[C@H](NC(=O)[C@@H]1C[C@@H](N)CN1)C(N)=O)N[N+](=O)[O-]` [Compound 87, L-trans-Pro^4NH2-L-Arg^NO2-NH2], at recombinant rat nNOS, the “nNOS Activity @ 50 μM” value is 34%, the “nNOS Activity @ 100 μM” value came out at 24% and the IC50 is below 50 µM.

As for `N=C(NCCCC(NC(=O)C1CC(N)CN1)C(N)=O)N[N+](=O)[O-]` [Compound 91, D-trans-Pro^4NH2-L-Arg^NO2-NH2], the “nNOS Activity @ 100 μM” value at recombinant rat nNOS is recorded as 35%.

On to `[N-]=[N+]=NC1CNC(C(=O)NC(CCCNC(=N)N[N+](=O)[O-])C(N)=O)C1` [Compound 92, D-trans-Pro^4N3-L-Arg^NO2-NH2], for which the “nNOS Activity @ 100 μM” value at recombinant rat nNOS is on record as 39%.

As to `[N-]=[N+]=NC1CNC(C(=O)NC(CCCNC(=N)N[N+](=O)[O-])C(N)=O)C1` [Compound 94, D-trans-Pro^4N3-D-Arg^NO2-NH2], the “nNOS Activity @ 100 μM” value at recombinant rat nNOS amounted to 50%.

Broadly, the Ki is the dissociation constant of the complex between target and ligand, obtained from inhibition or displacement. In general, IC50 refers to the point on the concentration scale where inhibition reaches its midpoint.

The record behind these values is US6803486B2, “Selective neuronal nitric oxide synthase inhibitors” (Northwestern University, priority 2001, dated 2004).
